Data: publication PMC5218480 (PLoS ONE, 2017)

System: MV-4-11 cells
Test: Gene expression microarray analysis (Affymetrix PrimeView) and GSEA
Format: cell-based, human
Set-up: RFU PODN (11730768_x_at) / Fold change /veh PODN (11730768_x_at) / RFU LINC00158 (11744669_a_at) / Fold change /veh LINC00158 (11744669_a_at) / RFU DUSP10 (11751237_a_at) / Fold change /veh DUSP10 (11751237_a_at) / RFU ID3 (11757404_x_at) / Fold change /veh ID3 (11757404_x_at) / RFU PLEKHG5 (11737974_s_at) / Fold change /veh PLEKHG5 (11737974_s_at) / RFU LRRC4B (11730491_at) / Fold change /veh LRRC4B (11730491_at) / RFU GIMAP4 (11747438_a_at) / Fold change /veh GIMAP4 (11747438_a_at) / RFU KRT8 (11758183_x_at) / Fold change /veh KRT8 (11758183_x_at) / RFU CNN1 (11734310_a_at) / Fold change /veh CNN1 (11734310_a_at) / RFU VPS37D (11726825_at) / Fold change /veh VPS37D (11726825_at) / RFU C10orf10 (11716522_x_at) / Fold change /veh C10orf10 (11716522_x_at) / RFU KIR2DL2 /// KIR2DL4 /// KIR2DL5A /// KIR2DL5B /// KIR2DS1 /// KIR2DS2 /// KIR2DS3 /// KIR2DS4 /// KIR3DL3 /// KIR3DL3 /// KIR3DS1 (11738374_at) / Fold change /veh KIR2DL2 /// KIR2DL4 /// KIR2DL5A /// KIR2DL5B /// KIR2DS1 /// KIR2DS2 /// KIR2DS3 /// KIR2DS4 /// KIR3DL3 /// KIR3DL3 /// KIR3DS1 (11738374_at) / RFU C1QL1 (11718748_at) / Fold change /veh C1QL1 (11718748_at) / RFU TMPRSS4 (11747572_a_at) / Fold change /veh TMPRSS4 (11747572_a_at) / RFU HAMP (11756126_x_at) / Fold change /veh HAMP (11756126_x_at) / RFU RNFT2 (11725882_a_at) / Fold change /veh RNFT2 (11725882_a_at) / RFU NR4A2 (11747474_a_at) / Fold change /veh NR4A2 (11747474_a_at) / RFU ABCC12 (11746883_a_at) / Fold change /veh ABCC12 (11746883_a_at) / RFU TMEM136 (11760407_x_at) / Fold change /veh TMEM136 (11760407_x_at) / RFU CLDN22 /// WWC2 (11732394_at) / Fold change /veh CLDN22 /// WWC2 (11732394_at) / RFU HLA-DPB1 (11760878_x_at) / Fold change /veh HLA-DPB1 (11760878_x_at) / RFU SPINT1 (11716480_a_at) / Fold change /veh SPINT1 (11716480_a_at) / RFU GAP43 (11754022_s_at) / Fold change /veh GAP43 (11754022_s_at) / RFU A4GNT (11735810_at) / Fold change /veh A4GNT (11735810_at) / RFU PRB3 (11715151_x_at) / Fold change /veh PRB3 (11715151_x_at) / RFU TUBB4B (11761932_at) / Fold change /veh TUBB4B (11761932_at) / RFU CAPN14 (11732068_a_at) / Fold change /veh CAPN14 (11732068_a_at) / RFU TMCC2 (11721928_a_at) / Fold change /veh TMCC2 (11721928_a_at) / RFU IRGQ (11745062_a_at) / Fold change /veh IRGQ (11745062_a_at) / RFU FAM174B (11720279_a_at) / Fold change /veh FAM174B (11720279_a_at) / RFU TMPRSS4 (11748680_a_at) / Fold change /veh TMPRSS4 (11748680_a_at) / RFU FAM212B (11763350_a_at) / Fold change /veh FAM212B (11763350_a_at) / RFU PLEKHG5 (11743358_a_at) / Fold change /veh PLEKHG5 (11743358_a_at) / RFU ZSCAN30 (11745921_a_at) / Fold change /veh ZSCAN30 (11745921_a_at) / RFU CMKLR1 (11741424_a_at) / Fold change /veh CMKLR1 (11741424_a_at) / RFU LOC101060620 /// MAPK8IP1 (11723275_at) / Fold change /veh LOC101060620 /// MAPK8IP1 (11723275_at) / RFU SPTSSB (11747773_x_at) / Fold change /veh SPTSSB (11747773_x_at) / RFU PRSS12 (11739890_at) / Fold change /veh PRSS12 (11739890_at) / RFU BIN1 (11741810_x_at) / Fold change /veh BIN1 (11741810_x_at) / RFU WNT11 (11732464_a_at) / Fold change /veh WNT11 (11732464_a_at) / RFU C10orf10 (11716521_a_at) / Fold change /veh C10orf10 (11716521_a_at) / RFU C5orf56 (11738089_at) / Fold change /veh C5orf56 (11738089_at) / RFU CYB561 (11721691_x_at) / Fold change /veh CYB561 (11721691_x_at) / RFU ANKRD19P (11752326_a_at) / Fold change /veh ANKRD19P (11752326_a_at) / RFU OR2T12 /// OR2T33 /// OR2T8 (11738714_s_at) / Fold change /veh OR2T12 /// OR2T33 /// OR2T8 (11738714_s_at) / RFU VCAN (11748164_a_at) / Fold change /veh VCAN (11748164_a_at) / RFU JSRP1 (11732532_at) / Fold change /veh JSRP1 (11732532_at) / RFU KRTAP10-11 (11738290_x_at) / Fold change /veh KRTAP10-11 (11738290_x_at) / RFU MYO3A (11730013_a_at) / Fold change /veh MYO3A (11730013_a_at) / RFU EBF3 (11725865_a_at) / Fold change /veh EBF3 (11725865_a_at) / RFU CAMK2N1 (11719241_x_at) / Fold change /veh CAMK2N1 (11719241_x_at) / RFU C5orf56 (11738088_a_at) / Fold change /veh C5orf56 (11738088_a_at) / RFU OLFML3 (11715873_a_at) / Fold change /veh OLFML3 (11715873_a_at) / RFU LOC100653217 /// NTM (11731650_a_at) / Fold change /veh LOC100653217 /// NTM (11731650_a_at) / RFU MAPK11 (11762145_a_at) / Fold change /veh MAPK11 (11762145_a_at) / RFU FIZ1 (11724087_x_at) / Fold change /veh FIZ1 (11724087_x_at) / RFU OASL (11726364_x_at) / Fold change /veh OASL (11726364_x_at) / RFU SOX15 (11748057_x_at) / Fold change /veh SOX15 (11748057_x_at) / RFU CD79A (11719716_a_at) / Fold change /veh CD79A (11719716_a_at) / RFU HIST1H1D (11736915_at) / Fold change /veh HIST1H1D (11736915_at) / RFU CASKIN2 (11723855_a_at) / Fold change /veh CASKIN2 (11723855_a_at) / RFU LOC730098 (11760151_x_at) / Fold change /veh LOC730098 (11760151_x_at) / RFU OR4N2 (11742367_at) / Fold change /veh OR4N2 (11742367_at) / RFU PRRT2 (11749266_a_at) / Fold change /veh PRRT2 (11749266_a_at) / RFU SNX32 (11753110_a_at) / Fold change /veh SNX32 (11753110_a_at) / RFU CDHR5 (11726645_a_at) / Fold change /veh CDHR5 (11726645_a_at) / RFU RCAN1 (11760418_a_at) / Fold change /veh RCAN1 (11760418_a_at) / RFU FAM167A (11723789_a_at) / Fold change /veh FAM167A (11723789_a_at) / RFU FAM26E (11764081_at) / Fold change /veh FAM26E (11764081_at) / RFU ISYNA1 (11749810_s_at) / Fold change /veh ISYNA1 (11749810_s_at) / RFU ACY1 (11761880_at) / Fold change /veh ACY1 (11761880_at) / RFU 11764098_at / Fold change /veh 11764098_at / RFU SAMD14 (11745864_x_at) / Fold change /veh SAMD14 (11745864_x_at) / RFU NPB (11741838_a_at) / Fold change /veh NPB (11741838_a_at) / RFU TMPRSS6 (11731388_a_at) / Fold change /veh TMPRSS6 (11731388_a_at) / RFU KRTAP10-2 (11738614_at) / Fold change /veh KRTAP10-2 (11738614_at) / RFU ARHGAP8 /// PRR5-ARHGAP8 (11727945_x_at) / Fold change /veh ARHGAP8 /// PRR5-ARHGAP8 (11727945_x_at) / RFU KRTAP5-7 /// NADSYN1 (11734609_at) / Fold change /veh KRTAP5-7 /// NADSYN1 (11734609_at) / RFU RASL12 (11751679_a_at) / Fold change /veh RASL12 (11751679_a_at) / RFU CDKN2B (11736163_a_at) / Fold change /veh CDKN2B (11736163_a_at) / RFU PRF1 (11729649_at) / Fold change /veh PRF1 (11729649_at) / RFU, ZNF638 /// ZNF638-IT1 / Fold change vs veh, ZNF638 /// ZNF638-IT1 / RFU, PANK3 / Fold change vs veh, PANK3 / RFU, SH3YL1 / Fold change vs veh, SH3YL1 / RFU, ZEB2 / Fold change vs veh, ZEB2 / RFU, NRIP1 / Fold change vs veh, NRIP1 / RFU, PTTG1IP / Fold change vs veh, PTTG1IP / RFU, CAPN2 / Fold change vs veh, CAPN2 / RFU, MED14 / Fold change vs veh, MED14 / RFU, SNORA58 / Fold change vs veh, SNORA58 / RFU, C1orf63 / Fold change vs veh, C1orf63 / RFU, LRRFIP1 / Fold change vs veh, LRRFIP1 / RFU, NDUFAF7 / Fold change vs veh, NDUFAF7 / RFU, SLC12A2 / Fold change vs veh, SLC12A2 / RFU, IBTK / Fold change vs veh, IBTK / RFU, ESF1 / Fold change vs veh, ESF1 / Fold change vs veh, TMEM50B / RFU, TAOK1 / Fold change vs veh, TAOK1 / RFU, ACBD3 / Fold change vs veh, ACBD3 / RFU, TMA16 / Fold change vs veh, TMA16 / RFU, RWDD3 / Fold change vs veh, RWDD3 / RFU, BCAT1 / Fold change vs veh, BCAT1 / RFU, EDEM3 / Fold change vs veh, EDEM3 / RFU, TMEM33 / Fold change vs veh, TMEM33 / RFU, WDR75 / Fold change vs veh, WDR75 / RFU, AHCTF1 / Fold change vs veh, AHCTF1 / RFU, TFRC / Fold change vs veh, TFRC / RFU, ZDHHC17 / Fold change vs veh, ZDHHC17 / RFU, NOM1 / Fold change vs veh, NOM1 / RFU, ARL8B / Fold change vs veh, ARL8B / RFU, ZBTB11 / Fold change vs veh, ZBTB11 / RFU, TAMM41 / Fold change vs veh, TAMM41 / RFU, KIAA1704 /// LOC100996395 / Fold change vs veh, KIAA1704 /// LOC100996395 / RFU, ING1 / Fold change vs veh, ING1 / RFU, TRMT61B / Fold change vs veh, TRMT61B / RFU, FUBP3 / Fold change vs veh, FUBP3 / RFU, TP53 / Fold change vs veh, TP53 / RFU, TNKS2 / Fold change vs veh, TNKS2 / RFU, ZFP14 / Fold change vs veh, ZFP14 / RFU, ACTR2 / Fold change vs veh, ACTR2 / RFU, PPP3R1 / Fold change vs veh, PPP3R1 / RFU, PIK3R1 / Fold change vs veh, PIK3R1 / RFU, HNRNPA1 / Fold change vs veh, HNRNPA1 / RFU, RNF170 / Fold change vs veh, RNF170 / RFU, ZNF28 / Fold change vs veh, ZNF28 / RFU, RNGTT / Fold change vs veh, RNGTT / RFU, OGT / Fold change vs veh, OGT / RFU, BRD1 / Fold change vs veh, BRD1 / RFU, MARS / Fold change vs veh, MARS / RFU, ZNF655 / Fold change vs veh, ZNF655 / RFU, FAHD1 / Fold change vs veh, FAHD1 / RFU, BDP1 / Fold change vs veh, BDP1 / RFU, LRRCC1 / Fold change vs veh, LRRCC1 / RFU, ARID1A / Fold change vs veh, ARID1A / RFU, ZNF146 / Fold change vs veh, ZNF146 / RFU, ZNF330 / Fold change vs veh, ZNF330 / RFU, GPN3 / Fold change vs veh, GPN3 / RFU, C9orf123 / Fold change vs veh, C9orf123 / RFU, N4BP2L2 / Fold change vs veh, N4BP2L2 / RFU, ARFIP1 / Fold change vs veh, ARFIP1 / RFU, FAM179B / Fold change vs veh, FAM179B / RFU, BCL10 / Fold change vs veh, BCL10 / RFU, UHRF1BP1L / Fold change vs veh, UHRF1BP1L / RFU, BET1 / Fold change vs veh, BET1 / RFU, CNOT2 / Fold change vs veh, CNOT2 / RFU, ZNF268 / Fold change vs veh, ZNF268 / Fold change vs veh, ZNF507 / RFU, DGCR2 / Fold change vs veh, DGCR2 / RFU, WDSUB1 / Fold change vs veh, WDSUB1 / Fold change vs veh, HSP90B1 /// MIR3652 / RFU, ADSS / Fold change vs veh, ADSS / RFU, GK / Fold change vs veh, GK / RFU, ZNF148 / Fold change vs veh, ZNF148 / RFU, TAF9 / Fold change vs veh, TAF9 / RFU, SLC1A5 / Fold change vs veh, SLC1A5 / RFU, SLMO2 / Fold change vs veh, SLMO2 / RFU, ABCC4 / Fold change vs veh, ABCC4 / RFU, LOC101060439 /// RAP1B / Fold change vs veh, LOC101060439 /// RAP1B / RFU, RFX7 / Fold change vs veh, RFX7 / RFU, GTPBP10 / Fold change vs veh, GTPBP10 / RFU, CNEP1R1 / Fold change vs veh, CNEP1R1 / RFU, BIVM-ERCC5 /// ERCC5 / Fold change vs veh, BIVM-ERCC5 /// ERCC5 / RFU, ILF3 / Fold change vs veh, ILF3 / RFU 11762660_at / Fold change /veh 11762660_at / RFU VCAN (11757783_s_at) / Fold change /veh VCAN (11757783_s_at) / RFU DDX43 (11728927_at) / Fold change /veh DDX43 (11728927_at) / RFU KRT8 (11758188_x_at) / Fold change /veh KRT8 (11758188_x_at) / RFU NKD1 (11759106_at) / Fold change /veh NKD1 (11759106_at) / RFU SRD5A1 (11742802_a_at) / Fold change /veh SRD5A1 (11742802_a_at) / RFU TPSAB1 /// TPSB2 (11721975_s_at) / Fold change /veh TPSAB1 /// TPSB2 (11721975_s_at) / RFU GSTM3 (11746129_a_at) / Fold change /veh GSTM3 (11746129_a_at) / RFU IL23R (11737362_x_at) / Fold change /veh IL23R (11737362_x_at) / RFU TMEM51 (11727254_a_at) / Fold change /veh TMEM51 (11727254_a_at) / RFU PIWIL2 (11732686_x_at) / Fold change /veh PIWIL2 (11732686_x_at) / RFU ORM1 (11744905_x_at) / Fold change /veh ORM1 (11744905_x_at) / RFU CCDC152 (11743942_at) / Fold change /veh CCDC152 (11743942_at) / RFU ECM1 (11717891_a_at) / Fold change /veh ECM1 (11717891_a_at) / RFU IL23R (11748794_a_at) / Fold change /veh IL23R (11748794_a_at) / RFU TNFAIP8L3 (11732012_x_at) / Fold change /veh TNFAIP8L3 (11732012_x_at) / RFU MBOAT4 (11741988_at) / Fold change /veh MBOAT4 (11741988_at) / RFU 11764193_at / Fold change /veh 11764193_at / RFU TMEM53 (11763286_at) / Fold change /veh TMEM53 (11763286_at) / RFU MAGEB2 (11727129_at) / Fold change /veh MAGEB2 (11727129_at) / RFU TMEM200A (11744735_a_at) / Fold change /veh TMEM200A (11744735_a_at) / RFU CCDC152 (11751479_a_at) / Fold change /veh CCDC152 (11751479_a_at) / RFU FAM211A (11726209_a_at) / Fold change /veh FAM211A (11726209_a_at) / RFU RGS16 (11746705_a_at) / Fold change /veh RGS16 (11746705_a_at) / RFU VCAN (11755009_s_at) / Fold change /veh VCAN (11755009_s_at) / RFU RHOB (11743442_s_at) / Fold change /veh RHOB (11743442_s_at) / RFU RGS16 (11720943_a_at) / Fold change /veh RGS16 (11720943_a_at) / RFU RGS16 (11720944_at) / Fold change /veh RGS16 (11720944_at) / RFU, VPS4B / Fold change vs veh, VPS4B / RFU, CREB1 / Fold change vs veh, CREB1 / RFU, DNAJC13 / Fold change vs veh, DNAJC13 / RFU, GNAQ / Fold change vs veh, GNAQ / RFU, CDK5R1 / Fold change vs veh, CDK5R1 / RFU, ZRANB3 / Fold change vs veh, ZRANB3 / RFU, CUL4A / Fold change vs veh, CUL4A / RFU, CCNY / Fold change vs veh, CCNY / RFU, UFL1 / Fold change vs veh, UFL1 / RFU, COG3 / Fold change vs veh, COG3 / RFU, DIAPH2 / Fold change vs veh, DIAPH2 / RFU, SKA2 / Fold change vs veh, SKA2 / RFU, AFF3 / Fold change vs veh, AFF3 / RFU, LMF1 / Fold change vs veh, LMF1 / RFU, IPO11 / Fold change vs veh, IPO11 / RFU, DFFB / Fold change vs veh, DFFB / RFU, FOXP1 / Fold change vs veh, FOXP1 / RFU, CARD8 / Fold change vs veh, CARD8 / RFU, STRN3 / Fold change vs veh, STRN3 / RFU, ADK / Fold change vs veh, ADK / RFU, RASSF2 / Fold change vs veh, RASSF2 / RFU, WIPF1 / Fold change vs veh, WIPF1 / RFU, LARP1B / Fold change vs veh, LARP1B / RFU, RASA1 / Fold change vs veh, RASA1 / RFU, RB1 / Fold change vs veh, RB1 / RFU, PPFIA1 / Fold change vs veh, PPFIA1 / RFU, MAT2A / Fold change vs veh, MAT2A / RFU, CCT5 / Fold change vs veh, CCT5 / RFU, WDR92 / Fold change vs veh, WDR92 / RFU, CUX1 / Fold change vs veh, CUX1 / RFU, TTC7A / Fold change vs veh, TTC7A / RFU, TMEM135 / Fold change vs veh, TMEM135 / RFU, DEPTOR / Fold change vs veh, DEPTOR / RFU, CPM / Fold change vs veh, CPM / RFU, DNAJB6 / Fold change vs veh, DNAJB6 / RFU, CACNA2D3 / Fold change vs veh, CACNA2D3 / RFU, DTX4 / Fold change vs veh, DTX4 / RFU, TFCP2 / Fold change vs veh, TFCP2 / RFU, GMCL1 /// GMCL1P1 / Fold change vs veh, GMCL1 /// GMCL1P1 / RFU, AEBP2 / Fold change vs veh, AEBP2 / RFU, SNHG1 /// SNORD22 /// SNORD25 /// SNORD26 /// SNORD27 /// SNORD28 /// SNORD29 /// SNORD31 / Fold change vs veh, SNHG1 /// SNORD22 /// SNORD25 /// SNORD26 /// SNORD27 /// SNORD28 /// SNORD29 /// SNORD31 / Fold change (Aza/veh), C12orf56 (ProbeSet 11735607_a_at) / Fold change (ACY-1035/veh), C12orf56 (ProbeSet 11735607_a_at) / Fold change (Aza/veh), FGFR1OP (ProbeSet 11751329_s_at) / Fold change (ACY-1035/veh), FGFR1OP (ProbeSet 11751329_s_at) / Fold change (Aza/veh), VPS36 (ProbeSet 11739960_a_at) / Fold change (ACY-1035/veh), VPS36 (ProbeSet 11739960_a_at) / RFU SYPL1 (11715823_x_at) / Fold change /veh SYPL1 (11715823_x_at) / RFU IGFBP7 (11715501_s_at) / Fold change /veh IGFBP7 (11715501_s_at) / RFU REEP3 (11722064_at) / Fold change /veh REEP3 (11722064_at) / RFU IGLL1 (11728026_x_at) / Fold change /veh IGLL1 (11728026_x_at): dose or concentration left out as unconfirmed
Conditions: ProbeSet 11726703_a_at; LIST B

Nc1ncn([C@@H]2O[C@H](CO)[C@@H](O)[C@H]2O)c(=O)n1 [azacitidine]
RFU, BCL10: 71.45 RFU
